Among the data in ChEMBL document CHEMBL3272225, “Potential carcinostatics. Synthesis and biological properties of d- and 1-beta,beta-difluoroaspartic acid and beta,beta-difluoroasparagine” (J Med Chem, 1977) are Cell growth, Activity and Ki values, retold here.

A short description of experiment [1]: Growth inhibition of mouse 3T3-F cells assessed as cell growth at 100 ug/ml after 24 hrs by Coulter counting method. The format is functional.
Experiment [2] in a line: Growth inhibition of mouse 3T3-F cells at 10 ug/ml assessed as cell growth after 24 hrs by Coulter counting method. In kind it is functional.
Experiment [3] is filed under the species Mus musculus. Put plainly: Growth inhibition of mouse 3T3-F cells assessed as cell growth after 24 hrs by Coulter counting method. The format is functional.
A short description of experiment [4]: Competitive inhibition of aspartate aminotransferase in rat liver homogenate by Lineweaver-Burk plot method. The format is tissue-based.
For experiment [5], the system named is L5178Y. Put plainly: Antitumor activity against mouse L5178Y cells allografted in CDF-1 mouse assessed as cytostatic activity administered on day 1 to day 9 post challenge. The format is functional.

Calls of active or inactive are those of the source. The rule behind the calls is not given here.

Take `N[C@@H](C(=O)O)C(F)(F)C(=O)O`: the Cell growth at 100 µg/mL in experiment [1] was 12%. In addition, the Cell growth at 10 µg/mL in experiment [2] worked out at 75%.

Turning to `N[C@H](C(=O)O)C(F)(F)C(=O)O`, in experiment [3], the result was inactive.

As for `NC(C(=O)O)C(F)(F)C(=O)O` (racemic), affinity in experiment [4] was put at a Ki of 1 mM. In experiment [5], the result was inactive.

With `NC(=O)C(F)(F)C(N)C(=O)O` (racemic), in experiment [5], the outcome was inactive.
